Experimental data: US20240181091A1, “ORAL DELIVERY OF SILICA/ALUMINOSILICATE NANOPARTICLES” (Cornell University, priority 2021, published 2024)

System: Caco-2 monolayer
Type: in vitro ADME, human
Protocol: To test that the monolayer well resembled the epithelial lining of the GI tract and formed tight junctions, Lucifer Yellow (LY) was used as a standard. It has been reported that the integrity of a Caco-2 monolayer is good once the Papp of LY across the monolayer is <5×10^−7 cm/s. The measured Papp of LY across all Caco-2 monolayers (see Methods for more details) used in this study is depicted in FIG. 8B, with all values of Papp<3×10^−7 cm/s.
Caco-2 Cell Culture: Caco-2 cells (ATCC) were cultured in RPMI 1640 supplemented with 20% fetal bovine serum and 10k/10k penicillin/streptomycin (Lonza). 75 μL of Caco-2 cells were plated on the apical side of a 96-well Transwell dish at a seeding density of 2×10^5 cells/mL. 75 μL of media was used on the apical side and 235 μL on the basolateral side. The media was changed every other day for a week, followed by changes every day until the Papp of a Lucifer Yellow assay was <5×10^−7 cm/s. Cells were incubated at 37° C. with 5% CO2 and 90% humidity.
Lucifer Yellow Monolayer Integrity Assay: Lucifer Yellow (LY) was dissolved at a concentration of 0.1 mg/mL in Hank's balanced salt solution (HBSS). 75 μL of LY solution was added to the apical side and 235 μL HBSS was added to the basolateral side. […] The concentration of LY on the basolateral side was determined using fluorescence 488/520 ex/em with a Spectramax M2. […]

Papp of Lucifer Yellow across Caco-2 monolayers: < 0.3 ×10⁻⁶ cm/s
Substance: Lucifer Yellow [LY]
